Reference: paper PMC8987110, “The Nutraceutical Alliin From Garlic Is a Novel Substrate of the Essential Amino Acid Transporter LAT1 (SLC7A5)” (Frontiers in Pharmacology, 2022)

What was measured:
hLAT1 (LAT1, SLC7A5) [1] = target: T1, hLAT1 (LAT1, SLC7A5) (Homo sapiens, UniProt Q01650); experiment: inhibition of [3H]-histidine uptake in proteoliposomes, Lineweaver-Burk; assay type: biochemical
T1 construct: recombinant hLAT1 WT alone (no CD98/SLC3A2), expressed in E. coli Rosetta(DE3)pLysS, purified on HisTrap (His tag implied), reconstituted in proteoliposomes with cholesterol

hLAT1 (LAT1, SLC7A5) [2] = target: T1, hLAT1 (LAT1, SLC7A5); experiment: inhibition of [3H]-histidine uptake in proteoliposomes, dose-response; assay type: biochemical

T1 sequence (Q01650 whole entry): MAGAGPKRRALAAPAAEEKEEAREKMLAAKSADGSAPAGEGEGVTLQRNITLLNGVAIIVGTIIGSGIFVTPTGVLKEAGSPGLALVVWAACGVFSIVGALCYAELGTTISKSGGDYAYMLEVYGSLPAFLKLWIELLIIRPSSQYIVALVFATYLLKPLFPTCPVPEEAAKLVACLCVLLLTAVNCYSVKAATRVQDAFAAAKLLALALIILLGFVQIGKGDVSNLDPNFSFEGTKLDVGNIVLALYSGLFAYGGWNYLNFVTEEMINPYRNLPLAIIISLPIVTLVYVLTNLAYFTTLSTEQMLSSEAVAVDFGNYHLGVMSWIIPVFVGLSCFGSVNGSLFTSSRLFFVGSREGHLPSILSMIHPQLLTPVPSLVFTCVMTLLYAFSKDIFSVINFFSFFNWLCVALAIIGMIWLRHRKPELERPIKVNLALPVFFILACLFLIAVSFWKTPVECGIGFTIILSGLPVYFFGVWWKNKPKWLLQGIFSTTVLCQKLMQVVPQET

Ki (hLAT1 (LAT1, SLC7A5) [1]): 50 ± 19 µM
IC50 (hLAT1 (LAT1, SLC7A5) [2]): 79 ± 9 µM
SMILES: C=CC[S@+]([O-])C[C@H](N)C(=O)O [alliin]
